Laboratory results from ChEMBL document CHEMBL2007661, “Compounds: GSK PKIS; Assays: UNC Frye lab” (2012).
Values joined by “and” are separate entries in the source; they are usually repeats but may differ in a detail not shown here. Identical values can stand only once.

Legend:
[1] = molecular target: T1, Inhibitor of nuclear factor kappa-B kinase subunit alpha (Homo sapiens) (UniProt O15111); conditions: at 1 µM
T1 sequence (whole entry): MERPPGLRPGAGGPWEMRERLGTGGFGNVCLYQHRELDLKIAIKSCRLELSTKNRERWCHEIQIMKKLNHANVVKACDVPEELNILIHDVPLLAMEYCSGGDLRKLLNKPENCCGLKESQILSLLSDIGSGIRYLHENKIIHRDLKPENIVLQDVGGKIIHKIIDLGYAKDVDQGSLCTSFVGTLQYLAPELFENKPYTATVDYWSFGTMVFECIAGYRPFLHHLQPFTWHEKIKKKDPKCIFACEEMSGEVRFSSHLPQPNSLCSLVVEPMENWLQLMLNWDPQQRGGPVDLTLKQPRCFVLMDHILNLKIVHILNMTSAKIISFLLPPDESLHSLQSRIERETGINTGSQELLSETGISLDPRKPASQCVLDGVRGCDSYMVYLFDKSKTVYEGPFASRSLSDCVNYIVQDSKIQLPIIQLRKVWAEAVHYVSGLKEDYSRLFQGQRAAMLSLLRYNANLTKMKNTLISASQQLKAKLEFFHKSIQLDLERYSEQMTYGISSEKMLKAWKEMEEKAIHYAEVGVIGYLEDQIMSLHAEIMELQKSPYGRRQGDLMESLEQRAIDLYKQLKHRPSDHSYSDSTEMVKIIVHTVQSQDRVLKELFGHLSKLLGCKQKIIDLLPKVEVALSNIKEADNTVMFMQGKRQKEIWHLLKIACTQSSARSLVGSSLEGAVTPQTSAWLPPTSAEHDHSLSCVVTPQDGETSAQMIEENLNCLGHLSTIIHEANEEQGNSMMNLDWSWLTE

[2] = molecular target: T2, Inhibitor of nuclear factor kappa-B kinase subunit epsilon (Homo sapiens) (UniProt Q14164); conditions: at 1 µM
T2 sequence (whole entry): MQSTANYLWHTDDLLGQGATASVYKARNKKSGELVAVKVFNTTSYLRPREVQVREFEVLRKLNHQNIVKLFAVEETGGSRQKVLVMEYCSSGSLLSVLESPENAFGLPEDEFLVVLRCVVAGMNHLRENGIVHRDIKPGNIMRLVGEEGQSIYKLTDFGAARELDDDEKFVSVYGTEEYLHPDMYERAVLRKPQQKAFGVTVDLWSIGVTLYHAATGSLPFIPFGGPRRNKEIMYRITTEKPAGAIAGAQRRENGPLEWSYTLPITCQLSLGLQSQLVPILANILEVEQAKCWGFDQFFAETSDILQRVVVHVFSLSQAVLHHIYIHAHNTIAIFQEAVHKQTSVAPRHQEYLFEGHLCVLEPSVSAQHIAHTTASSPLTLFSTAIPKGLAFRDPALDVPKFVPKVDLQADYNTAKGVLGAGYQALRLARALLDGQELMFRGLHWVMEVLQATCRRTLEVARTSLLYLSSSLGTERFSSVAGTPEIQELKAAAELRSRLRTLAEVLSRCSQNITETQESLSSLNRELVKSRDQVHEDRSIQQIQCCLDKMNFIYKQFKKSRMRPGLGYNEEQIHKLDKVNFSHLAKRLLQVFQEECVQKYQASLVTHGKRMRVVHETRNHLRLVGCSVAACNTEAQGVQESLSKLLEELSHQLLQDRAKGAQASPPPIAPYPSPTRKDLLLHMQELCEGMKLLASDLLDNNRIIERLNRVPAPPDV

Compound | inhibition [1] | inhibition [2]
CN(c1ccc(NC(=O)Nc2ccc(OC(F)(F)F)cc2)cc1)c1ccnc(Nc2cccc(S(N)(=O)=O)c2)n1 | 2% and 3% | 17% and 18%
COc1cc2c(cc1Nc1nc(Nc3ccsc3C(N)=O)c3cc[nH]c3n1)N(C(=O)CN(C)C)CCC2 | 3% and 4% | 7% and 6%
CN(c1ccc(NC(=O)Nc2c(Cl)cccc2Cl)cc1)c1ccnc(Nc2cccc(CS(C)(=O)=O)c2)n1 | 0% and 6% | 13%
[O-][S+]1CCN(Cc2ccc(-c3ccc4ncnc(Nc5ccc(OCc6cccc(F)c6)c(Cl)c5)c4c3)o2)CC1 | 16% and 1% | 1% and 2%
COc1ccc(Nc2ncc(-c3ccccc3)o2)cc1OC | 1% | 5% and 4%
Fc1ccc(-c2ncn(C3CCNCC3)c2-c2ccnc(Oc3ccccc3)n2)cc1 | 3% and 2% | -1% and -2%
NC(=O)c1ccc(Oc2nccc(-c3c(-c4ccc(F)cc4)ncn3C3CCNCC3)n2)cc1 | -5% and -4% | 3%
COc1cc(Nc2ncc(-c3ccccc3)o2)cc(OC)c1 | 1% | 0% and -1%
CCc1cccc(NC(=O)Nc2ccc(Oc3ccc4nc(NC(=O)OC)[nH]c4c3)cc2)c1 | -10% | -3% and -1%
CC1=C(C(=O)Nc2ccc3[nH]ncc3c2)C(c2ccc3ccccc3c2)CC(=O)N1 (stereo not drawn) | 0% and 11% | 0% and -3%
CC(C)=Cc1cccc2c1/C(=N/Nc1ccc(S(N)(=O)=O)cc1)C(=O)N2 | -2% and 1% | 33%
CCn1c(-c2nonc2N)nc2c(C#CC(C)(C)O)ncc(OC3CCNCC3)c21 | 9% and 5% | 95% and 96%
COc1cccc(-c2c[nH]c3c(N/N=C/c4ccncc4)ncnc23)c1 | 2% | 35% and 33%
NS(=O)(=O)c1ccc(-c2ccc3c(NC(=O)C4CC4)n[nH]c3c2)cc1 | -1% and 2% | 1% and -2%
Cc1nnc(-c2cccc(-c3ccc(C(=O)NCC4CC4)cc3)c2)o1 | 3% and 4% | -1%
COc1ccc(COc2ccc(Cc3cnc(N)nc3N)cc2OC)cc1 | 2% | -4% and -2%
FC(F)(F)CNc1nccc(-c2cnn3ncccc23)n1 | 2% and 7% | -2% and -1%
c1cnn2ncc(-c3ccnc(Nc4ccc5c(c4)OCCO5)n3)c2c1 | 0% and -2% | 23% and 21%
Cn1cc(C=C2C(=O)Nc3cccnc32)c2ccccc21 | 15% | 7% and 10%
Oc1cccc(-c2nc(-c3ccccc3)[nH]c2-c2ccncc2)c1 | 2% | -1% and -3%
OCCCNc1nccc(-c2c(-c3ccc(F)cc3)nn3cc(C(F)(F)F)ccc23)n1 | 2% | -3% and 0%
c1ccc(Oc2ccc(Nc3ncc(-c4ccccc4)o3)cc2)cc1 | 1% and 2% | -2% and -1%
Cc1ccc(-c2cc3c(NC(=O)C4CC4)ncnc3o2)cc1 | 0% and -1% | -4% and -3%
O=C(Nc1n[nH]c2cc(-c3ccccc3)ccc12)C1CC1 | 9% and -2% | -1%
